The results in this text go back to patent US7135466B2 (Kirin Beer Kabushiki Kaisha, priority 1999, dated 2006).

The target in the first assay is T1, c-kit (Homo sapiens, UniProt P10721).
T1 construct: MO7e (human megakaryocytic leukemia cell line) which had been arrested for 20 hr; endogenous in cells; host or cells: MO7e human megakaryocytic leukemia cell line
T1 sequence (P10721 26-976): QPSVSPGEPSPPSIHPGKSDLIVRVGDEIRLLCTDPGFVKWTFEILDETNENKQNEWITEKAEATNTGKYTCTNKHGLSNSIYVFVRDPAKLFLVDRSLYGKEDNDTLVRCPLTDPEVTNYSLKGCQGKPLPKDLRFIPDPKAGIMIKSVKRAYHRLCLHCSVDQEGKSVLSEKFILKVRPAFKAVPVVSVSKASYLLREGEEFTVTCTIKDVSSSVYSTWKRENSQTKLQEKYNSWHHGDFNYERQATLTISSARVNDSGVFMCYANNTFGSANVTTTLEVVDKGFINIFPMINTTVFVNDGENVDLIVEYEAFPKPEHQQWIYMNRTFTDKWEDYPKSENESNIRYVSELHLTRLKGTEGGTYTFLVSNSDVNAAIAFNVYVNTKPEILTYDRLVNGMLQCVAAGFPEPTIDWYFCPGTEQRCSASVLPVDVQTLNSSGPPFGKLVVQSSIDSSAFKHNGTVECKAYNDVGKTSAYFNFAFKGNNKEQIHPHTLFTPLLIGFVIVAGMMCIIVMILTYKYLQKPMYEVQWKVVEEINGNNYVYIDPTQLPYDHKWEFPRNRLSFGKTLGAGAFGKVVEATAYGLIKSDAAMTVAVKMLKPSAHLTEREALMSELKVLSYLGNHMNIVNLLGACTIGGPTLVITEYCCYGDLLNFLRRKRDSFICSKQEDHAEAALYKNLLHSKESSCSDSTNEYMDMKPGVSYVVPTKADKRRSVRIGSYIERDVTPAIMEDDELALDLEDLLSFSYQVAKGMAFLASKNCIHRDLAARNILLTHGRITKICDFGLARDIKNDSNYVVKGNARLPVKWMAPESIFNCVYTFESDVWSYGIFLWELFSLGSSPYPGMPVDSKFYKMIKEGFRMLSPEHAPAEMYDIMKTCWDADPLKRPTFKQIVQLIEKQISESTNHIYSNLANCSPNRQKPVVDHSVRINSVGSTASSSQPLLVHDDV
Nature of the assay: Inhibitory activity against c-kit autophosphorylation (MO7e cells, h-SCF). The note with it: MO7e cells, h-SCF stimulation; read-out: c-kit IC50. The assay is classed as cell-based. The essentials:
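First, human megakaryocytic leukemia MO7e cells arrested 20 hr receive compound for one hour. Second, SCF stimulation (50 ng/ml) runs 5 min, after which cells are solubilized. Third, tyrosine-phosphorylated c-kit in the lysate is quantified by sandwich ELISA with absorbance at 450 nm.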
In the case of `COc1cc2nccc(Oc3ccc(NC(=S)NC(=O)c4ccccc4)c(C)c3)c2cc1OC` [Example 1099, N-Benzoyl-N′-{4-[(6,7-dimethoxy-4-quinolyl)oxy]-2-methylphenyl}thiourea], the IC50 (as a rule, the concentration at which inhibition is half-maximal) is 552 nM.
On the same count and under the same terms, next, `COc1cc2nccc(Oc3ccc(NC(=S)NC(=O)c4ccc([N+](=O)[O-])cc4)cc3C)c2cc1OC` [Example 1108, N-{4-[(6,7-Dimethoxy-4-quinolyl)oxy]-3-methylphenyl}-N′-(4-nitrobenzoyl)thiourea]: 962 nM.
Still for that read-out and setting: the same measure for `COc1cc2nccc(Oc3ccc(NC(=S)NC(=O)c4ccccc4)cc3C)c2cc1OC` [Example 1109, N-Benzoyl-N′-{4-[(6,7-dimethoxy-4-quinolyl)oxy]-3-methylphenyl}thiourea]: 353 nM; for `COc1cc2nccc(Oc3ccc(NC(=S)NC(=O)c4cccc(C)c4)cc3C)c2cc1OC` [Example 1110, N-{4-[(6,7-Dimethoxy-4-quinolyl)oxy]-3-methylphenyl}-N′-(3-methylbenzoyl)thiourea]: 113 nM.
Still for that read-out and setting: next, `COc1cc2nccc(Oc3ccc(NC(=S)NC(=O)c4ccc(Cl)cc4)cc3C)c2cc1OC` [Example 1111, N-(4-Chlorobenzoyl)-N′-{4-[(6,7-dimethoxy-4-quinolyl)oxy]-3-methylphenyl}thiourea]: 405 nM; `COc1ccc(C(=O)NC(=S)Nc2ccc(Oc3ccnc4cc(OC)c(OC)cc34)c(F)c2)c(OC)c1` [Example 1113, N-(2,4-Dimethoxybenzoyl)-N′-{4-[(6,7-dimethoxy-4-quinolyl)oxy]-3-fluorophenyl}thiourea]: 785 nM.
Turning to `COc1cc2nccc(Oc3ccc(NC(=S)NC(=O)c4ccc(Cl)cc4Cl)cc3Cl)c2cc1OC` [Example 1114, N-{3-Chloro-4-[(6,7-dimethoxy-4-quinolyl)oxy]phenyl}-N′-(2,4-dichlorobenzoyl)thiourea], the IC50 was determined as 674 nM.
Still for that read-out and setting: the same measure for `COc1cc2nccc(Oc3ccc(NC(=S)NC(=O)c4cc(Cl)cc(Cl)c4)cc3Cl)c2cc1OC` [Example 1116, N-{3-Chloro-4-[(6,7-dimethoxy-4-quinolyl)oxy]phenyl}-N′-(3,5-dichlorobenzoyl)thiourea]: 878 nM.

The assay is the same for the next values; noted with them: Mo7e, figure in parentheses in −( ); at 1000 nM.
`COc1cc2nccc(Oc3ccc(NC(=S)NC(=O)c4ccc(F)cc4)c(C)c3)c2cc1OC` [Example 1093, N-{4-[(6,7-Dimethoxy-4-quinolyl)oxy]-2-methylphenyl}-N′-(4-fluorobenzoyl)thiourea]: the inhibition (commonly the change of the read-out against control, counted positive when it falls) at 1 µM was found to be 32%.
The same measure, in the same setting: the same measure for `COc1cc2nccc(Oc3ccc(NC(=S)NC(=O)c4ccccc4F)c(C)c3)c2cc1OC` [Example 1094, N-{4-[(6,7-Dimethoxy-4-quinolyl)oxy]-2-methylphenyl}-N′-(2-fluorobenzoyl)thiourea]: 18%; for `COc1cc2nccc(Oc3ccc(NC(=S)NC(=O)c4ccccc4Cl)c(C)c3)c2cc1OC` [Example 1097, N-(2-Chlorobenzoyl)-N′-{4-[(6,7-dimethoxy-4-quinolyl)oxy]-2-methylphenyl}thiourea]: 8%.
On the same count and under the same terms, the same measure for `COc1cc2nccc(Oc3ccc(NC(=S)NC(=O)c4cccc(C)c4)c(C)c3)c2cc1OC` [Example 1098, N-{4-[(6,7-Dimethoxy-4-quinolyl)oxy]-2-methylphenyl}-N′-(3-methylbenzoyl)thiourea]: 41%; for `COc1cc2nccc(Oc3ccc(NC(=S)NC(=O)c4cccc(Cl)c4)c(C)c3)c2cc1OC` [Example 1100, N-(3-Chlorobenzoyl)-N′-{4-[(6,7-dimethoxy-4-quinolyl)oxy]-2-methylphenyl}thiourea]: 18%.
On the same count and under the same terms, the same measure for `COc1cc2nccc(Oc3ccc(NC(=S)NC(=O)c4c(Cl)cccc4Cl)cc3F)c2cc1OC` [Example 1112, N-(2,6-Dichlorobenzoyl)-N′-{4-[(6,7-dimethoxy-4-quinolyl)oxy]-3-fluorophenyl}thiourea]: 19%; for `COc1cc2nccc(Oc3ccc(NC(=S)NC(=O)c4c(Cl)cccc4Cl)cc3Cl)c2cc1OC` [Example 1115, N-{3-Chloro-4-[(6,7-dimethoxy-4-quinolyl)oxy]phenyl}-N′-(2,6-dichlorobenzoyl)thiourea]: 10%.
